The subject of data set [1] is cysteine proteases. Particulars: via a catalytic thiol oxidation; Inorg. Chem. 37: 1704-1712, 1998; cited from earlier work.
For data set [2], the system named is IL-18 secretion by human PBMC. Put plainly: SAC-induced secretion of IL-18 by PBMC (ELISA). It counts as cell-based. As to the method:
Human peripheral blood mononuclear cells (PBMC) were isolated from randomly selected healthy donors by Ficoll-Hypaque (Pharmacia, Piscataway, N.J.) density-gradient centrifugation. PBMC were adjusted to 2.5×10^6 cells/ml and cultured in enriched RPMI 1640 medium (Biological industries, Kibbutz Beit Haemek, Israel) with 10% FCS (Biological industries) at 37° C. and 7% CO2.
(§1) Cells were first treated with various concentrations of AS101 and after 1 hour SAC was added. After 24 hours, supernatants were collected and evaluated for cytokine content. Viability at the end of these experiments, as assessed by tryptan blue exclusion method, was always found to be >95%.
(§2) The R&D Systems (Minneapolis, Minn.) IL-18 and IL-1β ELISA kits were used for the quantitative measurement of these cytokines either in supernatants or in mice sera.
PBMC (2.5×10^6 cells/ml) were treated with various concentrations of AS101 and after 1 hour were stimulated with SAC (10^−3 V/V). Results represent means±SE of three experiments **p<0.05 decrease vs SAC; *p<0.01 decrease vs SAC. Optimal concentration of SAC for cytokine secretion stimulation was 10^−3 v/v (data not shown).
On the technique in general: In an ELISA, binding on a coated surface is turned into a signal by an enzyme label.

The subject of data set [3] is PBMC. Put plainly: Viability of treated cells by trypan blue exclusion. Particulars: cells treated with various concentrations of AS101, SAC, 24 hours. It counts as cell-based, human. As to the method:
as §1

The subject of data set [4] is IL-18 mRNA in human HaCat keratinocytes. Briefly: IL-18 mRNA levels in HaCat cells (RT-PCR). It counts as cell-based. Particulars: AS101 1 μg/ml preincubated 2 hours, FIG. 4b. As to the method:
Total RNA was prepared from treated or non treated human keratinocytes by using Tri-reagent (Sigma Aldrich, Rehovot, Israel). Oligo(dt) primed cDNA was synthesized using 2 μg of total RNA. mRNA/cDNA specific cytokine primer pairs were designed and PCR was performed using the following primer pairs (5 μM each): IL-18 (product 558 bp): 178-201 [5′-[…]-3′], 735-759 [5′-[…]-3′]. Cycling conditions were 95° C., 4 minutes; 94° C., 1 minute, 65° C., 1 minute; and 72° C., 1 minute for 29 cycles. GPDH (glyceraldehyde-phosphate-dehydrogenase, product 500 bp) was used as a control: [5′-[…]-3′],[5′-[…]-3′]. The amplified products were visualized using ethidium bromide staining.
Changes at the IL-18 mRNA level were studied when keratinocytes were pretreated with AS101 (1 μg/ml) using optimal concentrations of PMA (10 ng/ml) and LPS (50 ng/ml). Total RNA was isolated from whole cell lysates. GAPDH was used as internal control. Cultured keratinocytes (1×10^6 cells/ml) were either untreated or treated with PMA at 5 ng/ml and 10 ng/ml (line 2 and 3 respectively) and with LPS at 40 ng/ml and 50 ng/ml (line 4 and 5 respectively).
PCR products were amplified for 29 cycles.

For data set [5], the system named is IL-18. Briefly: IL-18 levels in LPS-induced septic mice. Particulars: 24 hours after LPS, FIG. 7a. It counts as in vivo, c57BL/6J mice. As to the method: For serum cytokine evaluation, PBS or AS101 was injected intraperitoneally (i.p.) 2 hours following LPS treatment. For survival experiments AS101 was injected i.p. daily at various concentrations starting 1 hour and up to 24 hours following LPS until the end of the experiment.
as §2
PBS (control) and AS101 at various concentrations were injected into c57BL/6J mice 2 hours following induction of sepsis by LPS (0.5 mg/mouse) treatment. 24 hours after LPS injection, mice were sacrificed and evaluated for plasma concentration of these cytokines in order to determine whether AS101 can inhibit production of IL-18 and IL-1β in vivo.

Data set [6] concerns metallo proteases. The following applies: Inorg. Chem. 37: 1704-1712, 1998; cited from earlier work.
In data set [7] the test system is aspartic proteases. Particulars: Inorg. Chem. 37: 1704-1712, 1998; cited from earlier work.
For data set [8], the target named is T1, caspase-1 (ICE-Interleukin-β-converting enzyme), rCaspase-1 (Homo sapiens, UniProt P29466).
T1 construct: purchased Biomol International Industries L.P. Canada
T1 sequence (P29466 120-297 limits assumed): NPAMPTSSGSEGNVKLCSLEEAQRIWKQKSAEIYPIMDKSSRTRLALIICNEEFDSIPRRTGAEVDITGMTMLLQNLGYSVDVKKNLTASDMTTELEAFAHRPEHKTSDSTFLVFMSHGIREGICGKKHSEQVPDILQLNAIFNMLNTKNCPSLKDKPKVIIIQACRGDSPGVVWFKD
T1 sequence (P29466 317-404 limits assumed): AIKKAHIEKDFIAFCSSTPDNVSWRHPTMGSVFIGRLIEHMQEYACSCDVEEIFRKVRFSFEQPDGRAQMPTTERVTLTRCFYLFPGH
Briefly: Caspase-1 activity enzymatic assay with colorimetric substrate Ac-YVAD-pNA. It counts as biochemical. Particulars: AS101 2.5, 5, 10 μM; 1 hour, 30° C., 405 nm; FIG. 1. As to the method: DTT, which is present in the commercial enzyme solution, interacts with AS101 and thus would interfere with the inhibition studies. Therefore removal of DTT from the enzyme solution prior to the enzymatic assay was necessary. Gel permeation chromatography was carried out at 4° C. 50 μl solution of commercial activated rCaspase-1 was loaded on a 1×15 cm Sephadex G-15 column (Pharmacia), preequilibrated with assay buffer containing: 50 mM Hepes, 100 mM NaCl, 0.1% CHAPS, 1 mM EDTA, 10% Glycerol at pH 7.4. The enzyme was eluted with the same buffer (degassed) at 0.5 ml/minute and 500 μl fractions were collected. The enzyme-substrate reaction was measured continuously with 1 min. intervals for a total time of 1 hour at 30° C. and was read at 405 nm. The total volume of the reaction was 100 μl and contained as following: 50 μl rCaspase-1 (0.8 U/μl), 25 μl colorimetric substrate (Ac-YVAD-pNA, 200 μM), 25 μl of AS101 at various concentrations (2.5 μM, 5 μM, 10 μM) in assay buffer.
AS101 was tested for its possible inhibitory activity towards a member of the cysteine protease family, caspase-1 (ICE-Interleukin-β-converting enzyme). The enzymatic reaction was carried out with caspase-1 specific colorimetric substrate, Ac-YVAD-pNA, and in the absence or the presence of AS101 at different concentrations. The enzyme activity was tested for 1 hour and measured at 405 nm. […]

Each structure is given as a SMILES string.

In the case of `Cl[TeH]1(Cl)(Cl)OCCO1` [AS101, ammonium trichloro(dioxyethylene-O,O′)tellurate], in data set [1], the “inhibition of cysteine proteases” value was “inhibits cysteine proteases”. Further, the “SAC-induced secretion levels of IL-18” value in data set [2] (AS101 1 hour before SAC 10^-3 v/v, after 24 hours, FIG. 2a) is “decrease SAC-induced secretion levels”. Moreover, in data set [2] (SAC, 24 hours), the “concentration from which the decrease in IL-18 secretion is significant (p<0.05)” value is ≥ 0.5 µg/mL. Besides, the viability (commonly a read-out of living cells in per cent, often relative to untreated cells) at the end of the experiments in data set [3] is > 95%. Moreover, the “IL-18 mRNA levels” value in data set [4] (then LPS 50 ng/ml) and in data set [4] (then PMA 10 ng/ml) was “Changes in mRNA levels were not detected” throughout. In addition, the “IL-18 level in septic mice” value in data set [5] (AS101 5 μg/mouse i.p. 2 hours after LPS 0.5 mg/mouse) and in data set [5] (AS101 10 μg/mouse i.p. 2 hours after LPS 0.5 mg/mouse) was “significantly inhibited” in each case. For the same molecule, the “inhibition of metallo proteases” value in data set [6] is “no inhibition”. Also, in data set [7], the “inhibition of aspartic proteases” value is “no inhibition”. In addition, in data set [8], the “effect on ICE activity (percent residual enzymatic activity)” value is “inhibits ICE activity directly, in a concentration-dependant manner”.

The values are drawn from patent US8623908B2, “Use of tellurium compounds for inhibition of interleukin-converting enzyme” (Biomas Ltd., priority 2004, dated 2014).
